This is an account of results in patent US20160222014A1, “COMPOUNDS FOR REGULATING FAK AND/OR SRC PATHWAYS” (ASANA BIOSCIENCES, LLC, priority 2013, published 2016).

The target in test [1] is T1, FAK phosphorylated at Y397 in HEK-FAK cell line overexpressing human FL FAK protein (Homo sapiens, UniProt Q05397).
T1 construct: expressed in transfected cells
As to the kind of experiment: Cell based assay, Phospho-FAK ELISA. The conditions noted are these: HEK stb; read-out: pFAK EC50 (μM) HEK stb. Summed up:
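Stable HEK293 line overexpressing full-length human FAK, kept under 0.8 mg/mL Zeocin. In lysates, FAK Y397 autophosphorylation was measured by sandwich ELISA: total-FAK capture antibody, biotinylated pY397-specific detection antibody, streptavidin-HRP with TMB substrate.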
(In general: ELISA stands for enzyme-linked immunosorbent assay.)

In a further test the target is T2, Recombinant Src enzyme (Homo sapiens, UniProt P12931).
T2 construct: purchased Millipore 14-326; host or cells: Sf21 insect cells
T2 sequence (P12931 whole entry): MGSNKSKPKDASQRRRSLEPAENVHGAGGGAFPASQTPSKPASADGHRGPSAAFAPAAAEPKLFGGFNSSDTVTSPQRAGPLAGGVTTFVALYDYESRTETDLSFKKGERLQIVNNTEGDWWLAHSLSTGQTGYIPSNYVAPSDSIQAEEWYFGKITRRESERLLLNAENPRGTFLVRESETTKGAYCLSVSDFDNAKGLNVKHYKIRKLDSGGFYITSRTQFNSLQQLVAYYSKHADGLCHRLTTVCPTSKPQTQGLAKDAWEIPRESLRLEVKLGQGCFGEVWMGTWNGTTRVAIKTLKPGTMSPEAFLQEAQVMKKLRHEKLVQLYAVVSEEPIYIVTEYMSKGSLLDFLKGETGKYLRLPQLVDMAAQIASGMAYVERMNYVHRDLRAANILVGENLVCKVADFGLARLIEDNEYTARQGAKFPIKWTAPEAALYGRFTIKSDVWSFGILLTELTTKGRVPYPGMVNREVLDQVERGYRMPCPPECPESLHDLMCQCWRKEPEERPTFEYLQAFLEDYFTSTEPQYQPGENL
As to the kind of experiment: Src HTRF assay. It counts as biochemical. The method in brief:
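Run as for the FAK HTRF assay (same buffer, supplements, compound preparation and procedure), with dasatinib included. Reaction contained 0.5 μM biotin-tagged Tyk2 synthetic peptide, 5 nM Src made in Sf21 cells, and a pH7.4-buffer-prepared component at 10 μM final.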
In general terms: In TR-FRET formats the signal depends on donor and acceptor labels being close together.

In the next test the target is JAK2 (Homo sapiens, UniProt O60674). Kind of test: JAK2 biochemical potency. The settings on record: read-out: JAK2 HTRF IC50.
JAK2, sequence (O60674 whole entry, species assumed): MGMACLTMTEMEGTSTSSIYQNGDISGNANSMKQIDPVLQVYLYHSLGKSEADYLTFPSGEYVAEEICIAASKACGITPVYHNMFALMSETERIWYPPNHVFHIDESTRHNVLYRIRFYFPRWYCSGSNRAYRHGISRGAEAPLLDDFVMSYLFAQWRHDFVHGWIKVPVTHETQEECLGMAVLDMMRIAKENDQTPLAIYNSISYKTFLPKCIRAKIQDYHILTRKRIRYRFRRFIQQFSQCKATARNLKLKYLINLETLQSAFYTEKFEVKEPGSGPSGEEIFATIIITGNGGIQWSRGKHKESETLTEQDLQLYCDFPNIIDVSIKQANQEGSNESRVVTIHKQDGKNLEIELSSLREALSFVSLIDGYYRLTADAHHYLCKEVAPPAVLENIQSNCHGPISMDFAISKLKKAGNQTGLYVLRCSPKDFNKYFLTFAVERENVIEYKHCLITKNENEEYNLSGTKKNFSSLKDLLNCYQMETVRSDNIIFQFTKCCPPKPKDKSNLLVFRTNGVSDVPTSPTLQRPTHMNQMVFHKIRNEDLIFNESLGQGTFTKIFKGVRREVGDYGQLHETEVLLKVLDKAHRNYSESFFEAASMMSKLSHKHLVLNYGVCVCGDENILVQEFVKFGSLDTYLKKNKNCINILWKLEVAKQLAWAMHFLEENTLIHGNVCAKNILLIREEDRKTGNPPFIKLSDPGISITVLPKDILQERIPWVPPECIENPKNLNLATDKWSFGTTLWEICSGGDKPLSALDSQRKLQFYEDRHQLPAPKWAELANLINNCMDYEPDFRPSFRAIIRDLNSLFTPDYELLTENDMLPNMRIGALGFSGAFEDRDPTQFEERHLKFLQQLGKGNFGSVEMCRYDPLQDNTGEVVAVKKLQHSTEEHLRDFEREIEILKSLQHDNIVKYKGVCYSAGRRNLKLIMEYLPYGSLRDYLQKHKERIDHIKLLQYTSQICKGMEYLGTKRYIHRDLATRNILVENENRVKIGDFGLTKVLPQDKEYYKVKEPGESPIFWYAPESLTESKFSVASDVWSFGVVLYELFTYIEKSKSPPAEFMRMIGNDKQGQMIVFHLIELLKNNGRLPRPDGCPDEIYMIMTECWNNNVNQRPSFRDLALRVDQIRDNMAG
In the next test the target is T3, AURKB (Aurora B) enzyme (Homo sapiens, UniProt Q96GD4).
T3 construct: purchased Invitrogen PVR 130
T3 sequence (Q96GD4 whole entry): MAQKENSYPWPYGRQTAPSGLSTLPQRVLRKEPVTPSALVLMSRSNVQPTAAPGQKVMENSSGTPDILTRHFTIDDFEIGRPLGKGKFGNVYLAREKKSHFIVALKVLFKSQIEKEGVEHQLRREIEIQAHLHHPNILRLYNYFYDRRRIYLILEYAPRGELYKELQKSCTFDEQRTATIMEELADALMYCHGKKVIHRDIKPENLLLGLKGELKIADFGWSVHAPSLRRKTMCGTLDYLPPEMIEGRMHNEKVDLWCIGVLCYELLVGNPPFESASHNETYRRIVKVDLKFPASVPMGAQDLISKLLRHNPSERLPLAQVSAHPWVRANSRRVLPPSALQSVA
Kind of test: Aurora B HTRF assay. It counts as biochemical. The settings on record: read-out: AuroraB IC50. Summed up: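 Enzyme (5 nM final) and ULight-labelled PLK Ser137 peptide (50 nM) reacted 1 h at room temperature; a 30 μM final component was also present. Detection used EDTA-containing buffer with europium anti-phospho-PLK(Ser137) antibody at 2 nM, 1 h, then time-resolved FRET readout.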

In the next test the target is T4, recombinant human FAK1 (Homo sapiens, UniProt Q05397).
T4 construct: fused on or other part: N-terminal 6xHis tag
T4 sequence (Q05397 422-680 limits assumed): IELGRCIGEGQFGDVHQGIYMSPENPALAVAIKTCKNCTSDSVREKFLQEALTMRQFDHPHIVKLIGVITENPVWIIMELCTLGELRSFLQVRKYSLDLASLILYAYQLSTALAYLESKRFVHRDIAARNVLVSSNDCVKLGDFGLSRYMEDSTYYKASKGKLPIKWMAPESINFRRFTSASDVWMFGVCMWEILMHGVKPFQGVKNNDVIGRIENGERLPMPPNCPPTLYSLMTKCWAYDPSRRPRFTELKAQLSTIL
Kind of test: FAK1 HTRF assay. The class given is biochemical. Summed up:
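IC50 values derive from HTRF % inhibition (ratio 665/620 nm, Eu–anti-phosphotyrosine 0.1 nM, SA-APC 12 nM). The kinase step ran 45 min at room temperature, pairing 10 nM His-FAK1(692–end) from baculovirus with 0.5 μM gastrin Tyr87 biotin-peptide and a reagent at 10 μM final, pH 7.4. Compound dilutions began at 10 μM.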

The target in another test is T5, Phospho Src(Y416) (Homo sapiens, UniProt P12931).
T5 construct: endogenous in cells; host or cells: Panc1
T5 sequence (P12931 whole entry): as the sequence (P12931 whole entry) above
As to the kind of experiment: Phospho Src(Y416) Sandwich ELISA. The conditions noted are these: Panc1; read-out: pSrc EC50 (μM) Panc1. It counts as cell-based. How it is done:
E. Phospho Src(Y416) Sandwich ELISA
Phospho Src(Y416) Sandwich ELISA kit was obtained from Cell Signaling Tech.
(i) Reagent Preparation • 1. All microwell strips were brought to rt before use. • 2. 1× Wash Buffer was prepared by diluting 20× Wash Buffer (included in each PathScan® Sandwich ELISA Kit) in MilliQ® water or equivalently purified water. • 3. 1× Cell Lysis Buffer from CST #9803: 20 mM Tris (pH 7.5), 150 mM NaCl, 1 mM ethylene diamine tetraacetate (EDTA), 1 mM ethylene glycol-bis(2-aminoethyl)-N,N,N′,N′-tetraacetic acid (EGTA), 1% Triton™ X-100, 2.5 mM sodium pyrophosphate, 1 mM b-glycerophosphate, 1 mM Na3VO4, 1 μg/mL leupeptin. This buffer was stored at 4° C. for short-term use (1-2 weeks).
(ii) Preparing Cell Lysates • 1. The media was aspirated. The cells were treated by adding fresh media containing inhibitor for 1 h. The compound of Example 214 was used as reference. • 2. The cells were harvested under non-denaturing conditions by removing media and rinsing cells once with ice-cold PBS. • 3. PBS was removed, 0.5 mL ice-cold 1× Cell Lysis Buffer plus 1 mM phenylmethylsulfonylfluoride (PMSF) was added to each plate (10 cm in diameter) and the plate incubated on ice for 5 min. • 4. The cells were scraped off of the plate, transferred to an appropriate tube, and kept on ice. • 5. The lysates were sonicated on ice. • 6. Microcentrifugation was performed for 10 min at 4° C. and the supernatant transferred to a new tube. The supernatant was the cell lysate and was stored at −80° C. in single-use aliquots.
(iii) Test Procedure • 1. After the microwell strips reached rt, the required number of microwells were broken off. The microwells were placed in the strip holder. Unused microwells were resealed and stored at 4° C. immediately. • 2. 100 μL of Sample Diluent (supplied in each PathScan® Sandwich ELISA Kit, blue color) was added to a micro centrifuge tube. 100 μL of cell lysate was transferred into the tube and vortexed for a few seconds. […] Individual data sheets for each kit provided information regarding an appropriate dilution factor for lysates and kit assay results. However, dilution factors were titrated when specific cell lysates are used. • 3. 100 μL of each diluted cell lysate were added to the appropriate well. It was then sealed with tape and pressed firmly onto top of microwells. The plate was incubated for 2 h at 37° C. Alternatively, the plate was incubated overnight at 4° C., which gave the best detection of target protein. • 4. The tape was gently removed and the wells washed: • a. The plate contents were discarded into a receptacle. • b. Each well was washed 4 times with 1× Wash Buffer, 200 μL. • c. For each wash, plates were struck on fresh towels hard enough to remove the residual solution in each well, but wells were not allowed to completely dry at any time. • d. The underside of all wells was cleaned with a lint-free tissue. • 5. 100 μL of Detection Antibody (green color) was added to each well, sealed with tape and the plate incubated for 1 h at 37° C. • 6. The wash procedure was repeated as in Step 4. • 7. 100 μL of HRP-linked secondary antibody (red color) was added to each well, sealed with tape and the plate incubated plate for 30 min at 37° C. • 8. The wash procedure was repeated as in Step 4. • 9. 100 μL of TMB Substrate was added to each well, sealed with tape and the plate incubated for 10 min at 37° C. or 30 min at 25° C. • 10. 100 μL of STOP Solution was added to each well and shaken gently for a few seconds. Initial color of positive reaction was blue, which changed to yellow upon addition of STOP Solution. • 11. The results were read. • a. Visual Determination—read within 30 min after adding STOP Solution. • b. Spectrophotometric Determination—the underside of wells were wiped with a lint-free tissue and absorbance read at 450 nm within 30 min after adding STOP Solution.

Bounds are passed on as bounds.

T1 sequence (Q05397 whole entry): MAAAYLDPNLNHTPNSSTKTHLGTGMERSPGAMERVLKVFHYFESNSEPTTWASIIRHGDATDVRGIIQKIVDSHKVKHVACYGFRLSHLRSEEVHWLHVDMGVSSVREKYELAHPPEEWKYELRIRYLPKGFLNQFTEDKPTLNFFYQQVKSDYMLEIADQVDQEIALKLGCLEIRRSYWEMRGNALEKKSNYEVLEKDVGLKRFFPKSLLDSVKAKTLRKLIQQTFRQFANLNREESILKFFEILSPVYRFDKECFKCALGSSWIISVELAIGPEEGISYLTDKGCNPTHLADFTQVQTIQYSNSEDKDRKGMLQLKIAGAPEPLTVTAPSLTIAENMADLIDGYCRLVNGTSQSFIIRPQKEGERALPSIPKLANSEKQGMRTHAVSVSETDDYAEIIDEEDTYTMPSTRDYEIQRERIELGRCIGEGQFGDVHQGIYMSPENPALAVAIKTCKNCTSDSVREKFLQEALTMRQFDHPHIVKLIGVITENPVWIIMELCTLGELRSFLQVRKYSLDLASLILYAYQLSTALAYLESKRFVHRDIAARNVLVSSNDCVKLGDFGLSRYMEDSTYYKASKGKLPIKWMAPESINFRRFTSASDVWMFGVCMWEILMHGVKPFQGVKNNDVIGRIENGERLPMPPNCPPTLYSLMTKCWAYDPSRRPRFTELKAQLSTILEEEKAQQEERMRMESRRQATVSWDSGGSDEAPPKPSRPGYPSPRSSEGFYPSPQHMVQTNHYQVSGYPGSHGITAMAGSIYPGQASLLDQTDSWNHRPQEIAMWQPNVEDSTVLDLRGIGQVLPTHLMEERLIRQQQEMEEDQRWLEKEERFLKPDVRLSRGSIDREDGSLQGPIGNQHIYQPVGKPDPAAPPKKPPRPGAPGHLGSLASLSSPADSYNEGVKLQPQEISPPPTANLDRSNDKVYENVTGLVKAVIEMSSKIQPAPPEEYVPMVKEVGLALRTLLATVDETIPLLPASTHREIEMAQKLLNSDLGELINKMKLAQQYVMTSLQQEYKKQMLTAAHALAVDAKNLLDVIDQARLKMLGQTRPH

By EC50 is commonly meant the concentration needed to bring the measured effect to its halfway point. As a reminder, the IC50 is the concentration that inhibits the measured activity by half. As to `O=C1CCc2cc(Nc3cc4c(ccn4S(=O)(=O)c4ccccc4OC(F)(F)F)cn3)ccc2N1` [Example 59], in test [1], the EC50 was above 1 µM. Further, the IC50 at Recombinant Src enzyme, at JAK2 and at AURKB (Aurora B) enzyme was above 1000 nM each time.
Consider `CN(c1ccccc1Cn1ccc2cnc(Nc3ccc(N4CCOCC4)cc3)nc21)S(C)(=O)=O` [Example 111], for which, in test [1], the EC50 is above 1 µM. Further, the IC50 on JAK2 and on recombinant human FAK1 was below 20 nM in each case.
In the case of `O=C1CCc2cc(Nc3ncc4ccn(S(=O)(=O)c5ccccc5OC(F)F)c4n3)ccc2N1` [Example 151], on recombinant human FAK1, the IC50 was below 20 nM. For the same molecule, on Phospho Src(Y416), the EC50 is above 1 µM.
In the case of `COc1ccccc1Nc1ncc2ccn(Cc3cccnc3N(C)S(C)(=O)=O)c2n1` [Example 154], in test [1], the EC50 is above 1 µM. In addition, the IC50 at Recombinant Src enzyme, at JAK2 and at AURKB (Aurora B) enzyme was above 1000 nM each time.
Turning to `N#Cc1ccccc1S(=O)(=O)n1ccc2cnc(Nc3ccc(N4CCNCC4)cc3)nc21` [Example 185], in test [1], the EC50 is above 1 µM. Also, the IC50 at JAK2, on recombinant human FAK1 and at AURKB (Aurora B) enzyme was below 20 nM throughout.
Consider `CN(C)S(=O)(=O)c1ccccc1Cn1ncc2cnc(Nc3ccc4c(c3)CCC(=O)N4)cc21` [Example 204], for which the EC50 in test [1] was above 1 µM. Further, the IC50 on JAK2, on recombinant human FAK1 and on AURKB (Aurora B) enzyme was below 20 nM throughout.
Consider `CN(C)S(=O)(=O)c1ccccc1Cn1ncc2cnc(Nc3ccc(N4CCNCC4)cc3)cc21` [Example 208], for which the EC50 in test [1] was above 1 µM. The IC50 on JAK2 is below 20 nM.
`O=S(=O)(c1ccccc1)n1ccc2cnc(Nc3ccc(N4CCNCC4)cc3)nc21` [Example 224]: in test [1], the EC50 is above 1 µM. For the same molecule, the IC50 at Recombinant Src enzyme, at JAK2 and on AURKB (Aurora B) enzyme was below 20 nM throughout.
`C[C@@H]1CN(c2ccc(Nc3ncc4ccn(S(=O)(=O)c5ccccc5C#N)c4n3)cc2)CCN1` [Example 243]: the EC50 in test [1] was above 1 µM. Further, the IC50 on JAK2 and on AURKB (Aurora B) enzyme was below 20 nM each time.
Consider `O=S(=O)(c1ccccc1)n1ncc2cnc(Nc3ccc(N4CCNCC4)cc3)nc21` [Example 255], for which, at Phospho Src(Y416), the EC50 is below 0.02 µM.
Take `C[C@H]1CN(c2ccc(Nc3ncc4ccn(S(=O)(=O)c5cccc(C#N)c5)c4n3)cc2)CCN1` [Example 306]: the EC50 in test [1] is above 1 µM. Moreover, the IC50 at JAK2 and at AURKB (Aurora B) enzyme was below 20 nM in each case.
For the molecule `O=S(=O)(c1cccc2cccnc12)n1ccc2cnc(Nc3ccc(N4CCN(CCO)CC4)cc3)nc21` [Example 311], the IC50 on Recombinant Src enzyme, on JAK2, at recombinant human FAK1 and at AURKB (Aurora B) enzyme was below 20 nM in each case.
On to `C[C@H]1CNCCN1c1ccc(Nc2ncc3ccn(Cc4cccnc4N(C)S(C)(=O)=O)c3n2)cc1` [Example 320], for which the EC50 in test [1] was above 1 µM. The 50% inhibitory concentration (IC50) at JAK2 is below 20 nM.
On to `COc1cc(N2CCNCC2)ccc1Nc1ncc2ccn(S(=O)(=O)c3cccc4cccnc34)c2n1` [Example 327], for which the IC50 was above 1000 nM on Recombinant Src enzyme, above 1000 nM at JAK2, below 20 nM at recombinant human FAK1 and below 20 nM on AURKB (Aurora B) enzyme.
For the molecule `O=S(=O)(c1cccc2cccnc12)n1ccc2cnc(Nc3ccc(N4CC5CC4CN5)cc3)cc21` (stereo not drawn) [Example 329], the IC50 on Recombinant Src enzyme was above 1000 nM; at JAK2, above 1000 nM; at recombinant human FAK1 it was below 20 nM; at AURKB (Aurora B) enzyme, below 20 nM.
Take `COc1cc(N2CCNCC2)ccc1Nc1cc2c(cn1)cnn2S(=O)(=O)c1cccc2cccnc12` [Example 338, N-(2-methoxy-4-(piperazin-1-yl)phenyl)-1-(quinolin-8-ylsulfonyl)-1H-pyrazolo[4,3-c]pyridin-6-amine]: the EC50 in test [1] was below 0.02 µM. The IC50 was above 1000 nM on Recombinant Src enzyme, above 1000 nM at JAK2 and below 20 nM on recombinant human FAK1.
Regarding `COc1ccccc1S(=O)(=O)n1ccc2cnc(Nc3ccc(N4CCN(C(=O)C5CC5)CC4)cc3)nc21` [Example 350], at recombinant human FAK1, the IC50 is below 20 nM. Further, the EC50 at Phospho Src(Y416) was above 1 µM.
Consider `COc1cc(N2CCC(O)CC2)ccc1Nc1ncc2ccn(S(=O)(=O)c3cccc4cccnc34)c2n1` [Example 356], for which the IC50 on Recombinant Src enzyme was above 1000 nM; at JAK2, above 1000 nM; on recombinant human FAK1 it was below 20 nM; at AURKB (Aurora B) enzyme it was below 20 nM.
`O=S(=O)(c1cccc2cccnc12)n1ccc2cnc(Nc3ccc(N4CCNCC4)cc3OC3CCC3)nc21` [Example 358]: the EC50 in test [1] was above 1 µM. In addition, the IC50 at Recombinant Src enzyme, at JAK2 and on recombinant human FAK1 was above 1000 nM throughout.
Consider `Cc1cc(Nc2ncc3cnn(S(=O)(=O)c4cccc5cccnc45)c3n2)ccc1N1CCC(O)CC1` [Example 406], for which, at recombinant human FAK1, the half-maximal inhibitory concentration (IC50) is below 20 nM. In addition, on Phospho Src(Y416), the EC50 was above 1 µM.
As for `O=S(=O)(c1cccc2cccnc12)n1ncc2cnc(Nc3ccc(N4CCC(O)CC4)cc3)nc21` [Example 411], the IC50 at recombinant human FAK1 is below 20 nM. Moreover, the EC50 on Phospho Src(Y416) was above 1 µM.
Consider `COc1cc(N2CCNCC2)ccc1Nc1ncc2c(n1)N(S(=O)(=O)c1cccc3cccnc13)CC2(C)C` [Example 446], for which the IC50 on Recombinant Src enzyme was above 1000 nM; on JAK2 it was above 1000 nM; on recombinant human FAK1, below 20 nM; on AURKB (Aurora B) enzyme, above 1000 nM.
For `CC(=O)OC1CCN(c2ccc(Nc3ncc4c(n3)N(S(=O)(=O)c3cccc5cccnc35)CC4(C)C)cc2)CC1` [Example 453], at Phospho Src(Y416), the EC50 is above 1 µM.
Turning to `CN(c1ccccc1Cn1ccc2cnc(Nc3ccc4[nH]c(=O)oc4c3)nc21)S(C)(=O)=O` [Example 457], the EC50 on Phospho Src(Y416) is above 1 µM.
Regarding `CN(c1ccccc1Cn1ccc2cnc(Nc3ccc(OC4CNC4)cc3)nc21)S(C)(=O)=O` [Example 515], the EC50 in test [1] was above 1 µM. Besides, at JAK2, the IC50 is below 20 nM.
As for `CN(c1ncccc1Cn1ccc2cnc(Nc3ccc(N4CCCC(O)C4)cc3)nc21)S(C)(=O)=O` (stereo not drawn) [Example 753], at Phospho Src(Y416), the EC50 is above 1 µM.
